# In PubChem BioAssay (NCI):
#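 GI50 is the concentration that inhibits growth by half. At the TGI there is no net growth.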
# Columns and labels:
# Test in all cases: DTP human tumour cell line panel, 384-well format
# [1] = tested on: 786-0 renal
# [2] = tested on: OVCAR-3 ovarian
# [3] = tested on: M14 melanoma
# [4] = tested on: MOLT-4 leukemia
# [5] = tested on: HT29 colon
# [6] = tested on: SF-268 CNS
# [7] = tested on: SR leukemia
# [8] = tested on: UO-31 renal
# [9] = tested on: NCI-H23 lung
# [10] = tested on: OVCAR-4 ovarian
# [11] = tested on: MALME-3M melanoma
# [12] = tested on: A498 renal
# [13] = tested on: COLO 205 colon
# [14] = tested on: NCI-H226 lung
# [15] = tested on: MDA-MB-468 breast
# [16] = tested on: LOX IMVI melanoma
# [17] = tested on: SF-539 CNS
# [18] = tested on: HOP-62 NSCLC
# [19] = tested on: HCT-116 colon
# [20] = tested on: NCI-H522 lung
# [21] = tested on: RPMI-8226 leukemia
# [22] = tested on: SK-OV-3 ovarian
# [23] = tested on: MCF7 breast
# [24] = tested on: CCRF-CEM leukemia
# [25] = tested on: SK-MEL-2 melanoma
# [26] = tested on: SW-620 colon
# [27] = tested on: UACC-62 melanoma
# [28] = tested on: CAKI-1 renal
# [29] = tested on: NCI-H460 NSCLC
# [30] = tested on: SF-295 CNS
# [31] = tested on: BT-549 breast
# [32] = tested on: ACHN renal
# [33] = tested on: SNB-19 CNS
# [34] = tested on: NCI-H322M lung
# [35] = tested on: K-562 leukemia
# [36] = tested on: HCC-2998 colon
# [37] = tested on: TK-10 renal
# [38] = tested on: DU-145 prostate
# [39] = tested on: A549 NSCLC
# [40] = tested on: UACC-257 melanoma
# [41] = tested on: HOP-92 NSCLC
# [42] = tested on: MDA-MB-231 breast
# [43] = tested on: HL-60(TB) leukemia
# [44] = tested on: T-47D breast
# [45] = tested on: NCI/ADR-RES ovarian
# [46] = tested on: RXF 393 renal
# [47] = tested on: MDA-MB-435 melanoma
# [48] = tested on: SK-MEL-28 melanoma
# [49] = tested on: IGROV1 ovarian
# [50] = tested on: KM12 colon
# [51] = tested on: OVCAR-8 ovarian
# [52] = tested on: PC-3 prostate
# [53] = tested on: OVCAR-5 ovarian
# [54] = tested on: SK-MEL-5 melanoma
# [55] = tested on: U251 glioblastoma
# [56] = tested on: SN12C renal
# [57] = tested on: HCT-15 colon
compound,measurement,setting,value
CCN1[C@@H](C(=O)NC23CCC(C(=O)O)(CC2)CC3)[C@H](c2cccc(Cl)c2F)[C@]2(C(=O)Nc3cc(Cl)ccc32)C12CCCCC2,GI50,[1],3.49 µM
same,TGI,[1],13.5 µM
same,GI50,[2],1.44 µM
same,TGI,[2],2.9 µM
same,GI50,[3],0.035 µM
same,TGI,[3],2.37 µM
same,GI50,[4],< 0.01 µM
same,GI50,[5],3.52 µM
same,TGI,[5],13.9 µM
same,GI50,[6],2.34 µM
same,TGI,[6],6.8 µM
same,GI50,[7],< 0.01 µM
same,GI50,[8],0.0193 µM
same,TGI,[8],0.161 µM
same,GI50,[9],1.49 µM
same,TGI,[9],3.95 µM
same,GI50,[10],2.22 µM
same,TGI,[10],7.32 µM
same,GI50,[11],0.014 µM
same,TGI,[11],0.659 µM
same,GI50,[12],0.0136 µM
same,TGI,[12],1.09 µM
same,GI50,[13],2.2 µM
same,TGI,[13],4.46 µM
same,GI50,[14],< 0.01 µM
same,TGI,[14],0.0817 µM
same,GI50,[15],1.7 µM
same,TGI,[15],3.61 µM
same,GI50,[16],0.323 µM
same,TGI,[16],1.84 µM
same,GI50,[17],2.12 µM
same,TGI,[17],5.19 µM
same,GI50,[18],1.59 µM
same,TGI,[18],4.19 µM
same,GI50,[19],0.0303 µM
same,TGI,[19],1.49 µM
same,GI50,[20],2.41 µM
same,TGI,[20],6.92 µM
same,GI50,[21],1.26 µM
same,TGI,[21],2.51 µM
same,GI50,[22],2.96 µM
same,TGI,[22],13.7 µM
same,GI50,[23],0.0269 µM
same,TGI,[23],1.12 µM
same,GI50,[24],1.42 µM
same,TGI,[24],2.75 µM
same,GI50,[25],0.638 µM
same,TGI,[25],2.16 µM
same,GI50,[26],3.79 µM
same,TGI,[26],13.4 µM
same,GI50,[27],< 0.01 µM
same,TGI,[27],0.364 µM
same,GI50,[28],< 0.01 µM
same,TGI,[28],0.418 µM
same,GI50,[29],0.0294 µM
same,TGI,[29],1.08 µM
same,GI50,[30],1.24 µM
same,TGI,[30],2.67 µM
same,GI50,[31],1.93 µM
same,TGI,[31],6.16 µM
same,GI50,[32],0.0194 µM
same,TGI,[32],0.39 µM
same,GI50,[33],3.09 µM
same,TGI,[33],12.8 µM
same,GI50,[34],3.87 µM
same,TGI,[34],15.1 µM
same,GI50,[35],2.83 µM
same,TGI,[35],11 µM
same,GI50,[36],1.27 µM
same,TGI,[36],2.91 µM
same,GI50,[37],2.89 µM
same,TGI,[37],11.4 µM
same,GI50,[38],3.39 µM
same,TGI,[38],12.3 µM
same,GI50,[39],0.0452 µM
same,TGI,[39],1.14 µM
same,GI50,[40],0.148 µM
same,TGI,[40],0.431 µM
same,GI50,[41],1.77 µM
same,TGI,[41],4.43 µM
same,GI50,[42],3.13 µM
same,TGI,[42],14.2 µM
same,GI50,[43],2.03 µM
same,TGI,[43],3.46 µM
same,GI50,[44],1.62 µM
same,TGI,[44],6.27 µM
same,GI50,[45],3.64 µM
same,TGI,[45],13.6 µM
same,GI50,[46],1.02 µM
same,TGI,[46],2.56 µM
same,GI50,[47],2.26 µM
same,TGI,[47],5.65 µM
same,GI50,[48],2.76 µM
same,TGI,[48],7.42 µM
same,GI50,[49],0.244 µM
same,TGI,[49],2.77 µM
same,GI50,[50],2.87 µM
same,TGI,[50],9.12 µM
same,GI50,[51],3 µM
same,TGI,[51],11.4 µM
same,GI50,[52],2.88 µM
same,TGI,[52],9.4 µM
same,GI50,[53],1.92 µM
same,TGI,[53],4.66 µM
same,GI50,[54],0.239 µM
same,TGI,[54],1.81 µM
same,GI50,[55],3.07 µM
same,TGI,[55],11.5 µM
same,GI50,[56],3.53 µM
same,TGI,[56],12.7 µM
same,GI50,[57],2.66 µM
same,TGI,[57],10.1 µM
